From article PMC10997755, “Discovery of a small-molecule inhibitor that traps Polθ on DNA and synergizes with PARP inhibitors” (Nature Communications, 2024)
In brackets after ≈: the same amount, converted by molar mass. Several values for one entry are separate records, joined by “and”; a condition that tells them apart may be missing. Equal values may be shown once.

Columns and labels:
Solubility (2% DMSO/PBS) = assay type: physicochemical; details: aqueous buffer, kinetic from dmso stock
[1] = Colony survival, ola with or without RTX-161 (source data sheet Fig. 2 b; cell line not given); assay type: cell-based
EUFA1341 PALB2 mut cells = test: Clonogenic assay; assay type: cell-based
Outline: (§1)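 Colony formation by BRCA-deficient, PALB2-mutant and wild-type cells (300–1000 cells/well) and MEFs (300 cells/well) over 10–12 days, medium changed every 2 days. Colonies fixed, stained with 0.5% crystal violet and counted; IC50 from 3 or more independent experiments.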

[2] = test system: PALB2 complemented EUFA1341 cells; test: Clonogenic assay; assay type: cell-based; details: for Average (raw signal of wells) / Normalized (0 micro M = 100) / average - blank: per experiment
Outline: as §1

HCT116 Parental cells = test: Clonogenic assay; assay type: cell-based; details: for Average number of colonies counted / Normalized colonies (% normalized to control): per experiment
Outline: as §1

Polκ = biological target: T1, Polκ (Homo sapiens, UniProt Q9UBT6); test: Primer extension by recombinant Pols (selectivity); assay type: biochemical
T1 construct: gift: Dr. Arora (Fox Chase Cancer Center)
T1 sequence (Q9UBT6 1-870): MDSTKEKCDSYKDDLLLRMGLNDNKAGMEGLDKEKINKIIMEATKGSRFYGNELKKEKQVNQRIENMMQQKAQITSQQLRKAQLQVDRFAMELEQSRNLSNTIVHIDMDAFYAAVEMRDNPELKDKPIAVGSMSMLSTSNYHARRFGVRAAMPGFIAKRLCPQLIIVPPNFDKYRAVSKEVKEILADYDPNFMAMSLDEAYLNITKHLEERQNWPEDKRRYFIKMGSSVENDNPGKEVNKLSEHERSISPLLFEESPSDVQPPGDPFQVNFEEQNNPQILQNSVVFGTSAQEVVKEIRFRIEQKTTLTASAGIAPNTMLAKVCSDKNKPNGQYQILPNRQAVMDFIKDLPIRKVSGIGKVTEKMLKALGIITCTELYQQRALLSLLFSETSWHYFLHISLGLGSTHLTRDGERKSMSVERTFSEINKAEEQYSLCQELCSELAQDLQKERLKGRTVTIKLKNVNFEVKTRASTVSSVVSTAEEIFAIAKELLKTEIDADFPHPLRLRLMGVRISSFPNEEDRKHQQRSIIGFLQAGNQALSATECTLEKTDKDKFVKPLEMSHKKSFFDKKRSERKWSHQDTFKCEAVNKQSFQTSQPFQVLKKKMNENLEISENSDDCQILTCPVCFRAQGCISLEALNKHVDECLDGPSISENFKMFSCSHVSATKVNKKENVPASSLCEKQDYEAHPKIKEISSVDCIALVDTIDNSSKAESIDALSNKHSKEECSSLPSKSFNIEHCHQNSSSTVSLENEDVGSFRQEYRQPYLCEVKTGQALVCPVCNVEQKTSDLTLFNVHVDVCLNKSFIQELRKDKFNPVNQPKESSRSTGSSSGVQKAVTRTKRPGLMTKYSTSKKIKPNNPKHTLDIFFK

[3] = Clonogenic assay, OLA with or without RTX-161 (Fig. 2 a; cell line not given); assay type: cell-based; details: OLA 0, single experiments, relative to vehicle
Polε = test: Primer extension by recombinant Pols (selectivity); assay type: biochemical
DLD1 Parental cells = test: Apoptosis assay (FITC active caspase-3); assay type: cell-based; design: FITC- AVG / FITC+ AVG: unit not given here; details: for FITC+ AVG / FITC- AVG: DLD1 Parental
Protocol: DLD1 BRCA2 -/-, DLD1 Parental cells were plated on six well plates and treated with RTX-161 1 day after plating. Medium was replaced every 2 days with RTX-161. Cells were harvested 6 days after plating for apoptosis assay using FITC active caspase-3 apoptosis kit (BD biosciences, catalog # 550480) according to manufacturer’s instructions and analyzed by FACS with Celesta (Becton Dickinson).

[4] = selectivity panel, Pol named in Supplementary Fig. 1h

`CN(C(=O)Oc1ccc(C(F)(F)F)cc1C(F)(F)F)c1ccc(F)cc1` [MC160385] gave a solubility (Solubility (2% DMSO/PBS)) of 56 µM (≈ 21.3 µg/mL).
In the case of `CN(C(=O)Oc1c(N2CCN(CCO)C2=O)cc(C(F)(F)F)cc1C(F)(F)F)c1ccc(F)cc1` [RTx-161], the percent suvival ([1]; RTX-161 2.5 micro M + ola 11.8 nano M) is reported as 48.7273%, the percent suvival ([1]; RTX-161 2.5 micro M + ola 26.60 nano M) is reported as 30.5455% and the percent suvival ([1]; RTX-161 2.5 micro M + ola 60.00 nano M) is reported as 18.9091%. The percent suvival ([1]; RTX-161 2.5 micro M, ola 0.00 nano M) was 75.7576% and 82.5581% and 83.6364%, the percent suvival ([1]; RTX-161 5 micro M + ola 11.8 nano M) was 22.5455% and the percent suvival ([1]; RTX-161 5 micro M + ola 26.60 nano M) was 14.9091%. The percent suvival ([1]; RTX-161 5 micro M + ola 60.00 nano M) was 2.545%, the percent suvival ([1]; RTX-161 5 micro M, ola 0.00 nano M) was 46.9697% and 43.6047% and 70.9091% and the percent suvival ([1]; RTX-161 10 micro M + ola 11.8 nano M) was 9.818%. The percent suvival ([1]; RTX-161 10 micro M + ola 26.60 nano M) was 5.091%, the percent suvival ([1]; RTX-161 10 micro M + ola 60.00 nano M) was 0.7273% and the percent suvival ([1]; RTX-161 10 micro M, ola 0.00 nano M) was 24.2424% and 34.8837% and 47.6364%. The “survival of PALB2-mutant EUFA1341 cells” value (EUFA1341 PALB2 mut cells) was “significant reduction in the survival”, the IC50 (EUFA1341 PALB2 mut cells; EUFA1341 cells, label beside PALB2-mut curve, read-out: IC50 clonogenic survival) was about 5 µM and the “Normalized (0 micro M = 100)” value (EUFA1341 PALB2 mut cells; RTX-161 2.5 micro M, per experiment) was 67.9566% and 76.5823% and 64.8427%. For the same compound, the “Normalized (0 micro M = 100)” value (EUFA1341 PALB2 mut cells; RTX-161 5 micro M, per experiment) was 50.4887% and 55.1827% and 45.6779%, the “Average (raw signal of wells)” value (EUFA1341 PALB2 mut cells; RTX-161 10 micro M, per experiment) was 0.37 and 0.6469 and 0.6018 and the “activity against PALB2 complemented EUFA1341 cells” value [2] was “little to no activity”. For the same compound, the “Average (raw signal of wells)” value ([2]; RTX-161 2.5 micro M) was 1.026 and 0.9713 and 0.6573, the “Normalized (0 micro M = 100)” value ([2]; RTX-161 2.5 micro M) was 116.435% and 111.613% and 105.551% and the average - blank ([2]; RTX-161 2.5 micro M) was 0.8256 and 0.7713 and 0.5073. The “Average (raw signal of wells)” value ([2]; RTX-161 5 micro M) was 1.035 and 0.9992, the “Normalized (0 micro M = 100)” value ([2]; RTX-161 5 micro M) was 117.788% and 115.651% and 105.551% and the average - blank ([2]; RTX-161 5 micro M) was 0.8352 and 0.7992 and 0.5073. For the same compound, the “Average (raw signal of wells)” value ([2]; RTX-161 10 micro M) was 0.6121 and 1.137 and 1.058, the “Normalized (0 micro M = 100)” value ([2]; RTX-161 10 micro M) was 96.1382% and 132.128% and 124.139% and the “effect in BRCA2-WT cells” value (HCT116 Parental cells; HCT116, colony survival) was “little to no effect”. For the same compound, the “Normalized colonies, pooled Average of 3 experiments” value (from here on “Normalized colonies, pooled Average”) (HCT116 Parental cells; RTX-161 0.5 micro M) was 101.74%, the “Average number of colonies counted” value (HCT116 Parental cells; RTX-161 0.5 micro M) was 118 and 67.6667 and 68.6667 and the “Normalized colonies (% normalized to control)” value (HCT116 Parental cells; RTX-161 0.5 micro M) was 99.7183% and 107.407% and 98.0952%. The “Normalized colonies, pooled Average” value (HCT116 Parental cells; RTX-161 1 micro M) was 98.8027%, the “Average number of colonies counted” value (HCT116 Parental cells; RTX-161 1 micro M) was 114.333 and 64.6667 and 68 and the “Normalized colonies (% normalized to control)” value (HCT116 Parental cells; RTX-161 1 micro M) was 96.6197% and 102.646% and 97.1429%. For the same compound, the “Normalized colonies, pooled Average” value (HCT116 Parental cells; RTX-161 2 micro M) was 97.4337%, the “Average number of colonies counted” value (HCT116 Parental cells; RTX-161 2 micro M) was 112.667 and 59.6667 and 71.6667 and the “Normalized colonies (% normalized to control)” value (HCT116 Parental cells; RTX-161 2 micro M) was 95.2113% and 94.709% and 102.381%. For the same compound, the “Normalized colonies, pooled Average” value (HCT116 Parental cells; RTX-161 4 micro M) was 97.4186%, the “Average number of colonies counted” value (HCT116 Parental cells; RTX-161 4 micro M) was 107.667 and 62 and 72 and the “Normalized colonies (% normalized to control)” value (HCT116 Parental cells; RTX-161 4 micro M) was 90.9859% and 98.4127% and 102.857%. The “Normalized colonies, pooled Average” value (HCT116 Parental cells; RTX-161 8 micro M) was 96.7852%, the “Average number of colonies counted” value (HCT116 Parental cells; RTX-161 8 micro M) was 104.667 and 63 and 71.3333 and the “Normalized colonies (% normalized to control)” value (HCT116 Parental cells; RTX-161 8 micro M) was 88.4507% and 100% and 101.905%. The “% Full Extension” value (Polκ; Pol Kappa) was 89.30%, the “% Inhibition Compared to Control” value (Polκ; Pol Kappa) was 0.85% and the “% Relative Maximum Extension” value (Polκ; Pol Kappa) was 99.15%. For the same compound, the “inhibition of primer extension” value (Polκ; [4]) was “no inhibition”, the percent suvival ([3]; RTX-161 0.5 micro M) was 63.3333% and 80.7018% and 61.1842% and the percent suvival ([3]; RTX-161 1 micro M) was 55.8333% and 71.9298% and 46.0526%. For the same compound, the percent suvival ([3]; RTX-161 2 micro M) was 43.3333% and 23.3918% and 22.3684%, the “% Full Extension” value (Polε; Pol Epsilon) was 91.14% and the “% Inhibition Compared to Control” value (Polε; Pol Epsilon) was -0.19%. The “% Relative Maximum Extension” value (Polε; Pol Epsilon) was 100.19%, the “inhibition of primer extension” value (Polε; [4]) was “no inhibition” and the “% population FITC Caspase-3 Negative” value (DLD1 Parental cells; 10 uM RTX-161) was 99%. For the same compound, the “% population FITC Caspase-3 Negative” value (DLD1 Parental cells; 20 uM RTX-161) was 99%, the “FITC+ AVG” value (DLD1 Parental cells; 10 uM, left block of sheet) was 1.067 and the “FITC- AVG” value (DLD1 Parental cells; 10 uM, left block of sheet) was 98.9333. The “FITC+ AVG” value (DLD1 Parental cells; 10 uM, middle block of sheet) was 2.067, the “FITC- AVG” value (DLD1 Parental cells; 10 uM, middle block of sheet) was 98 and the “FITC+ AVG” value (DLD1 Parental cells; 10 uM, right block of sheet) was 2.033. For the same compound, the “FITC- AVG” value (DLD1 Parental cells; 10 uM, right block of sheet) was 97.9667, the “FITC+ AVG” value (DLD1 Parental cells; 20 uM, left block of sheet) was 0.9333 and the “FITC- AVG” value (DLD1 Parental cells; 20 uM, left block of sheet) was 99.0667. For the same compound, the “FITC+ AVG” value (DLD1 Parental cells; 20 uM, middle block of sheet) was 1.467, the “FITC- AVG” value (DLD1 Parental cells; 20 uM, middle block of sheet) was 98.6667 and the “FITC+ AVG” value (DLD1 Parental cells; 20 uM, right block of sheet) was 1.567. The “FITC- AVG” value (DLD1 Parental cells; 20 uM, right block of sheet) was 98.7667.
